Measured values reported in US20160193240A1, “Ulmoside-A: Useful For Prevention Or Cure Of Metabolic Diseases” (COUNCIL OF SCIENTIFIC & INDUSTRIAL RESEARCH, priority 2013, published 2016).

Assays:
C2C12 myotubes = experiment: Western blot of PGC-1α, PPAR and GLUT4 in C2C12 myotubes; assay type: cell-based, mouse; details: 10 nM, 24 or 48 hours
Experimental: B. ULMA induces protein levels of PGC-1α, PPARα and Glut4. C2C12 myotubes in 10 cm dish were treated with vehicle (DMSO) or 10 nM ULMA in DMSO for 24 or 48 h followed by western blotting with indicated antibodies. Data is representative of three independent experiments showing identical pattern.
Adiponectin enhances transcription of genes regulating fatty acid transport, fatty acid-oxidation and mitochondrial uncoupling proteins in skeletal muscle and myotubes (T. Kadowaki, T. Yamauchi, N. Kubota, K. Hara, K. Ueki, K. Tobe. J Clin Invest. 116(7): 1784-92. 2006; S. Dridi, M. Taouis. Journal of Nutritional Biochemistry 20 (2009): 831-839. 2009; M. Iwabu, T. Yamauchi, M. Okada-Iwabu, K. Sato, T. Nakagawa, M. Funata, M. Yamaguchi, S. Namiki, R. Nakayama, M. Tabata, H. Ogata, N. Kubota, I. Takamoto, Y. K. Hayashi, N. Yamauchi, H. Waki, M. Fukayama, I. Nishino, K. Tokuyama, K. Ueki, Y. Oike, S. Ishii, K. Hirose, T. Shimizu, K. Touhara, T. Kadowaki. Nature; 464(7293):1313-1319. 2010). The ability of ULMA to influence expression of these genes were checked in c2c12 myotubes. C2C12 myotubes in 6 well plates were treated with 10 nM ULMA or vehicle (DMSO) for 12 hours or 24 hours. Following treatment, the cells were washed with ice-cold PBS and RNA was extracted using Trizol (Ambion) according to manufacturer's instructions. The RNAs were quantitated using a spectrophotometer (nanophotometer; Implen GMBH) and 1 μg RNA was used to prepare cDNA using a cDNA synthesis kit (Applied Biosystems). cDNAs were then used for quantitative real-time PCR for indicated genes (FIG. 3A) using Veriquest SYBR green QRT-PCR mastermix (US Biologicals) and a Roche lightcycler 480 thermal cycler (Roche Diagnostics). Beta-actin was used as normalizing control. The relative mRNA level was quantitated using ddCT method. […] Adiponectin is also known to induce muscle and adipose glucose transporter 4 (GLUT4) expressions; and the ability of ULMA to induce the expression of GLUT4, PPAR and PGC-1α was investigated by western blotting. […]

pAMPK, pACC and pP38 = experiment: AMPK, ACC and p38 phosphorylation by western blot in C2C12 myotubes; assay type: cell-based, mouse; details: 10 nM
Experimental: A. ULMA induces rapid AMPK and p38MAPK signaling. C2C12 myotubes in 10 cm dishes were treated with vehicle (0.1% vol/vol DMSO; 0 min) or 10 nM ULMA for different time points ranging from 1 min to 24 h (final concentration of DMSO in all wells were 0.1% vol/vol). Following treatment, the cells were washed with ice-cold PBS and then lysed. The total protein was estimated by Bradford assay and equal amount of protein (50 μg) was resolved by denaturing polyacrylamide gel electrophoresis and western blotted to determine pAMPK, pACC and pP38 level. Total AMPK, total ACC or total P38 levels were used as loading controls. Data is representative of three independent experiments displaying identical pattern (right panel depicts densitometry from 3 experiments).
B. AdipoR1 overexpression enhances ULMA effect on AMPK and p38 MAPK signaling. C2C12 myoblasts growing in T75 flasks were trypsinized and transfected with […] of either empty vector (pcDNA3) or AdipoR1 expression plasmid using lipofectamine LTX transfection reagent and then the cells were plated in 10 cm dishes. 24 h following transfection, cells were incubated in differentiation medium and maintained in the same medium for 96 h when the cells differentiated fully into myotubes. These cells were then treated with vehicle (DMSO) or ULMA (10 nM) for 10 mins. The cells were then lysed and western blotted for the indicated proteins. Data is representative of three independent experiments displaying identical pattern.
C. Knockdown of AdipoR1 abrogates ULMA effect on AMPK and p38 signalling. C2C12 myotubes in 6 well plates were transfected with 100 nM non-silencing control or AdipoR1 siRNAs using DharmaFECT 1 transfection reagent (Thermo). 72 h following transfection, cells were treated with vehicle (DMSO) or ULMA (10 nM) for 10 min and were western blotted to evaluate pAMPK, pACC, p38, AdipoR1, and R2 status. Total AMPK, ACC, p38 and beta-actin were used as loading controls.
C2C12 myotubes in 10 cm dishes were treated with vehicle (0.1% DMSO; 0 min) or 10 nM ULMA for different time points ranging from 1 min to 24 hour. Following treatment, the cells were washed with ice-cold PBS and then lysed in lysis buffer [1M NaCl, 50 mM HEPES and 0.1% triton X 100 containing 1× protease inhibitor cocktail and 1× phosphates inhibitor cocktail (Sigma)]. The total protein was estimated by Bradford assay and equal amount of protein (50 μg) was resolved by denaturing polyacrylamide gel electrophoresis and western blotted for determination of pAMPK, pACC and pP38 levels (in all the cases the primary antibodies were used in 1:1000 dilution and all the antibodies were from Cell signaling technology). Total AMPK, ACC and p38 expressions were also detected and used as loading controls (all the antibodies were from Cell signaling technology and were used in 1:1000 dilution). […] To evaluate if AdipoRs are indeed involved in the regulation of these pathways by ULMA, C2C12 myoblasts growing in T75 flasks were trypsinized and transfected with 10 μg of either empty vector (pcDNA3) or AdipoR1 expression plasmid using lipofectamine LTX transfection reagent and then the cells were plated in 10 cm dishes. 24 hours following transfection, cells were incubated in differentiation medium and were maintained in the same medium for 96 hours when the cells fully differentiated into myotubes. These cells were then treated with vehicle (DMSO) or ULMA (10 nM) for 10 min. The cells were then lysed (as mentioned above) and western blotted. […] This was further validated in knockdown experiments where C2C12 myotubes in 6 well plates were transfected with 100 nM non-silencing control or AdipoR1 siRNAs using DharmaFECT 1 transfection reagent (Thermo). 72 hours following transfection, cells were treated with vehicle (DMSO) or ULMA (10 nM) for 10 min and were western blotted to evaluate pAMPK, pACC, pP38, AdipoR1, and R2 status.

O=C1c2c(cc(O)c([C@@H]3O[C@H](CO)[C@@H](O)[C@H](O)[C@H]3O)c2O)O[C@@H](c2ccc(O)c(O)c2)[C@@H]1O [ULMA, (2S,3S)-(+)-3′,4′,5,7-tetrahydroxydihydroflavonol-6-C-β-D-glucopyranoside]
GLUT4 protein level (C2C12 myotubes): induced protein levels
PGC-1α protein level (C2C12 myotubes): induced protein levels
PPAR protein level (C2C12 myotubes): induced protein levels
phosphorylation of ACC (pAMPK, pACC and pP38; 1 min to 24 hour): rapid and robust phosphorylation
phosphorylation of AMPK (pAMPK, pACC and pP38; 1 min to 24 hour): rapid and robust phosphorylation
phosphorylation of p38 (pAMPK, pACC and pP38; 1 min to 24 hour): phosphorylated
response on AMPK, ACC and p38 phosphorylation with siAdipoR1 (pAMPK, pACC and pP38; 10 min, 100 nM AdipoR1 siRNA): completely obliterated ULMA response
effect on AMPK and p38 MAPK signaling with AdipoR1 overexpression (pAMPK, pACC and pP38; 10 min, AdipoR1 expression plasmid vs empty vector): robust increase in effect of ULMA
AMPK, ACC and p38 phosphorylation with control siRNA (siC) (pAMPK, pACC and pP38; 10 min, non-silencing control siRNA): phosphorylated AMPK, ACC and P38
